In brackets after ≈: the same amount, converted by molar mass.
How the values were obtained:
[1] = Stability of ethambutol in the presence of isoniazid; assay type: physicochemical
Description: 765/Del/2003. However, a disadvantage associated therewith is that due to its unstability properties, ethambutol would degrade.

[2] = system: M. tuberculosis; details: cited from earlier work

CC[C@@H](CO)NCCN[C@@H](CC)CO [ethambutol]
stability in the presence of isoniazid [1]: highly unstable
minimum inhibitory concentration (MIC) [2]: 1.5 µg/mL (≈ 7.34 µM)

Reference: patent US20100204243A1, “Process for the Preparation of Poly DL-Lactide-Co-Glycolide Nanoparticles Having Antitubercular Drugs Encapsulated Therein” (priority 2005, published 2010)
